Experimental data as given in patent US20110045101A1, “FUNGICIDAL SUBSTITUTED AZOLES” (E.I. Du Pont De Nemours and Company, priority 2009, published 2011).
Marks after values point to notes of the source that are not given here.

Legend:
Type in all cases: in vivo
[1] = tested on: Erysiphe graminis f. sp. tritici; assay: Test J: wheat powdery mildew on wheat seedlings, sprayed the day before inoculation, visual disease rating; details: 100 = 100% disease control; for pest or weed control at 200 ppm: Blumeria graminis, 168 h
How it was run: (§1)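 Ratings reflect a 200 ppm spray (≈500 g/ha) unless marked as 40 ppm. Plants were sprayed to run-off. The spray suspension was acetone/purified water 50/50 containing 250 ppm Trem 014, after first dissolving compound in acetone at 3% of final volume.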

Botrytis cinerea = assay: Test C: tomato Botrytis on tomato seedlings, sprayed the day before inoculation, visual disease rating; details: 100 = 100% disease control; for pest or weed control at 200 ppm: Botrytis cinerea, 120 h
How it was run: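 Disease scored by eye on tomato seedlings inoculated with Botrytis cinerea a day after treatment. Treatment was a run-off spray at 200 ppm (equivalent to 500 g/ha), or 40 ppm where marked, in acetone/water carrying 250 ppm Trem 014.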

Septoria nodorum = assay: Test F: wheat glume blotch on wheat seedlings, sprayed the day before inoculation, visual disease rating; details: 100 = 100% disease control; for pest or weed control at 200 ppm: Parastagonospora nodorum, 264 h
How it was run: as §1

Alternaria solani = assay: Test D: tomato early blight, sprayed the day before inoculation, visual disease rating; details: 100 = 100% disease control; for pest or weed control at 200 ppm: Alternaria solani, 168 h
How it was run: as §1

Septoria tritici = assay: Test G: wheat leaf blotch on wheat seedlings, sprayed the day before inoculation, visual disease rating; details: 100 = 100% disease control; for pest or weed control at 200 ppm: Zymoseptoria tritici, 504 h
How it was run: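 Disease was rated visually after Septoria tritici inoculation, 48 h saturated incubation at 24°C and 19 days in a 20°C growth chamber. Inoculation followed one day after run-off spraying of seedlings with compound at 200 ppm (≈500 g/ha) or, where marked, 40 ppm, formulated in acetone/water with surfactant.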

[2] = tested on: Puccinia recondita f. sp. tritici; assay: Test I: wheat leaf rust on wheat seedlings, sprayed the day before inoculation, visual disease rating; details: 100 = 100% disease control; for pest or weed control at 200 ppm: Puccinia recondita, 168 h
How it was run: as §1

[3] = 40 ppm (marked *), 0 = no control
[4] = 200 ppm, 0 = no control relative to controls

With `Fc1cccc(F)c1-n1c(Br)nc(Cl)c1-c1ccc(Cl)cc1` [compound 164] the “Test J disease control rating” value [1, 3] was 94* %, the “Test C disease control rating” value (Botrytis cinerea; [3]) was 91* % and the “Test F disease control rating” value (Septoria nodorum; [3]) was 0* %. The “Test D disease control rating” value (Alternaria solani; [3]) was 88* %, the “Test G disease control rating” value (Septoria tritici; [3]) was 96* % and the “Test I disease control rating” value [2, 3] was 19* %.

For `COc1cc(F)c(-c2c(C)ncn2-c2ccc(Cl)cc2)c(F)c1` [compound 56], the “Test J disease control rating” value [1, 4] was 99%, the “Test C disease control rating” value (Botrytis cinerea; 40 ppm (marked *)) was 96* % and the “Test F disease control rating” value (Septoria nodorum; 40 ppm (marked *)) was 60* %. For the same compound, the “Test D disease control rating” value (Alternaria solani; 40 ppm (marked *)) was 100* %, the “Test G disease control rating” value (Septoria tritici; 40 ppm (marked *)) was 96* % and the “Test I disease control rating” value ([2]; 40 ppm (marked *)) was 94* %.

Compound `Cc1nn(C)c(-c2c(F)cccc2F)c1-c1cccc(F)c1` [Compound 60, 5-(2,6-difluorophenyl)-4-(3-fluorophenyl)-1,3-dimethyl-1H-pyrazole] has a pest or weed control at 200 ppm [1, 4] of 0%, a pest or weed control at 200 ppm (Botrytis cinerea; [4]) of 81% and a pest or weed control at 200 ppm (Septoria nodorum; [4]) of 0%. The pest or weed control at 200 ppm (Alternaria solani; [4]) was 0%, the pest or weed control at 200 ppm (Septoria tritici; [4]) was 2% and the pest or weed control at 200 ppm [2, 4] was 0%.

For `N#Cc1nc(Cl)c(-c2c(F)ccc(F)c2F)n1-c1ccc(Cl)cc1` [Compound 57, 4-chloro-1-(4-chlorophenyl)-5-(2,3,6-trifluorophenyl)-1H-imidazole-2-carbonitrile], the pest or weed control at 200 ppm [1, 4] was 100%, the pest or weed control at 200 ppm (Botrytis cinerea; [4]) was 84% and the pest or weed control at 200 ppm (Septoria nodorum; [4]) was 0%. The pest or weed control at 200 ppm (Alternaria solani; [4]) was 99%, the pest or weed control at 200 ppm (Septoria tritici; [4]) was 87% and the pest or weed control at 200 ppm [2, 4] was 96%.

For `Cc1ccc(-n2c(Cl)nc(Cl)c2-c2c(F)ccc(F)c2F)cc1C` [compound 226], the “Test J disease control rating” value ([1]; 200 ppm, 0 = no control) was 95%, the “Test C disease control rating” value (Botrytis cinerea; 200 ppm, 0 = no control) was 76% and the “Test F disease control rating” value (Septoria nodorum; 200 ppm, 0 = no control) was 0%. For the same compound, the “Test D disease control rating” value (Alternaria solani; 200 ppm, 0 = no control) was 67%, the “Test G disease control rating” value (Septoria tritici; 200 ppm, 0 = no control) was 88% and the “Test I disease control rating” value ([2]; 200 ppm, 0 = no control) was 0%.

For `Fc1cc(Cn2c(Br)nc(Cl)c2-c2c(F)cccc2F)ccc1Cl` [compound 102], the “Test J disease control rating” value [1, 4] was 99%, the “Test C disease control rating” value (Botrytis cinerea; [4]) was 98% and the “Test F disease control rating” value (Septoria nodorum; [4]) was 55%. The “Test D disease control rating” value (Alternaria solani; [4]) was 0%, the “Test G disease control rating” value (Septoria tritici; [4]) was 97% and the “Test I disease control rating” value [2, 4] was 99%.

`Fc1ccc(-c2c(Cl)nnn2-c2ccc(Cl)cc2)c(F)c1` [Compound 24, 4-chloro-1-(4-chlorophenyl)-5-(2,4-difluorophenyl)-1H-1,2,3-triazole] gave a pest or weed control at 200 ppm [1, 4] of 95%, a pest or weed control at 200 ppm (Botrytis cinerea; [4]) of 90% and a pest or weed control at 200 ppm (Septoria nodorum; [4]) of 0%. The pest or weed control at 200 ppm (Alternaria solani; [4]) was 0%, the pest or weed control at 200 ppm (Septoria tritici; [4]) was 67% and the pest or weed control at 200 ppm [2, 4] was 28%.

With `Cc1nc(Cl)c(-c2c(F)cccc2F)n1-c1cnc2ccccc2c1` [compound 199] the “Test J disease control rating” value ([1]; 200 ppm, 0 = no control) was 95%, the “Test C disease control rating” value (Botrytis cinerea; 200 ppm, 0 = no control) was 92% and the “Test F disease control rating” value (Septoria nodorum; 200 ppm, 0 = no control) was 100%. For the same compound, the “Test D disease control rating” value (Alternaria solani; 200 ppm, 0 = no control) was 100%, the “Test G disease control rating” value (Septoria tritici; 200 ppm, 0 = no control) was 96% and the “Test I disease control rating” value ([2]; 200 ppm, 0 = no control) was 98%.

In the case of `Fc1cc(F)c(-n2c(Cl)nc(Cl)c2-c2ccc(Cl)cc2)c(F)c1` [compound 204], the “Test J disease control rating” value [1, 3] is reported as 26* %, the “Test C disease control rating” value (Botrytis cinerea; [3]) is reported as 90* % and the “Test F disease control rating” value (Septoria nodorum; [3]) is reported as 0* %. The “Test D disease control rating” value (Alternaria solani; [3]) was 91* %, the “Test G disease control rating” value (Septoria tritici; [3]) was 90* % and the “Test I disease control rating” value [2, 3] was 18* %.

Compound `COc1cc(F)c(-c2c(Cl)ncn2-c2cccc(F)c2)c(F)c1` [Compound 246, 4-chloro-5-(2,6-difluoro-4-methoxyphenyl)-1-(3-fluorophenyl)-1H-imidazole] has a pest or weed control at 200 ppm ([1]; 200 ppm, 0 = no control) of 99%, a pest or weed control at 200 ppm (Botrytis cinerea; 200 ppm, 0 = no control) of 100% and a pest or weed control at 200 ppm (Septoria nodorum; 200 ppm, 0 = no control) of 95%. It also gave a pest or weed control at 200 ppm (Alternaria solani; 200 ppm, 0 = no control) of 100%, a pest or weed control at 200 ppm (Septoria tritici; 200 ppm, 0 = no control) of 93% and a pest or weed control at 200 ppm ([2]; 200 ppm, 0 = no control) of 100%.

With `COc1cc(F)c(-c2c(Cl)ncn2-c2ccc(C)cc2)c(F)c1` [compound 138] the “Test J disease control rating” value [1, 4] was 100%, the “Test C disease control rating” value (Botrytis cinerea; [4]) was 98% and the “Test F disease control rating” value (Septoria nodorum; [4]) was 92%. The “Test D disease control rating” value (Alternaria solani; [4]) was 100%, the “Test G disease control rating” value (Septoria tritici; [4]) was 99% and the “Test I disease control rating” value [2, 4] was 100%.

For `Fc1cc(F)c(-n2c(Br)nc(Cl)c2-c2ccc(Cl)cc2)c(F)c1` [compound 131], the “Test J disease control rating” value ([1]; 40 ppm (marked *)) was 48* %, the “Test C disease control rating” value (Botrytis cinerea; 40 ppm (marked *)) was 90* % and the “Test F disease control rating” value (Septoria nodorum; 40 ppm (marked *)) was 0* %. For the same compound, the “Test D disease control rating” value (Alternaria solani; 40 ppm (marked *)) was 99* %, the “Test G disease control rating” value (Septoria tritici; 40 ppm (marked *)) was 85* % and the “Test I disease control rating” value ([2]; 40 ppm (marked *)) was 0* %.

`Cc1ccc(-n2c(Br)nc(Cl)c2-c2c(F)cccc2F)cc1F` [compound 170] was tested, and the “Test J disease control rating” value ([1]; 200 ppm, 0 = no control) was 99%, the “Test C disease control rating” value (Botrytis cinerea; 200 ppm, 0 = no control) was 97% and the “Test F disease control rating” value (Septoria nodorum; 200 ppm, 0 = no control) was 0%. The “Test D disease control rating” value (Alternaria solani; 200 ppm, 0 = no control) was 98%, the “Test G disease control rating” value (Septoria tritici; 200 ppm, 0 = no control) was 95% and the “Test I disease control rating” value ([2]; 200 ppm, 0 = no control) was 99%.

`Cc1nc(Cl)c(-c2c(F)ccc(Cl)c2F)n1-c1ccc(Cl)cc1` [compound 127] was tested, and the “Test J disease control rating” value [1, 4] was 100%, the “Test C disease control rating” value (Botrytis cinerea; [4]) was 99% and the “Test F disease control rating” value (Septoria nodorum; [4]) was 98%. The “Test D disease control rating” value (Alternaria solani; [4]) was 100%, the “Test G disease control rating” value (Septoria tritici; [4]) was 95% and the “Test I disease control rating” value [2, 4] was 100%.

In the case of `Fc1cc(F)c(-n2cnc(Br)c2-c2ccc(Cl)cc2)c(F)c1` [compound 212], the “Test J disease control rating” value [1, 3] is reported as 0* %, the “Test C disease control rating” value (Botrytis cinerea; [3]) is reported as 40* % and the “Test F disease control rating” value (Septoria nodorum; [3]) is reported as 0* %. For the same compound, the “Test D disease control rating” value (Alternaria solani; [3]) was 20* %, the “Test G disease control rating” value (Septoria tritici; [3]) was 0* % and the “Test I disease control rating” value [2, 3] was 0* %.

In the case of `Fc1ccc(-n2c(Br)nc(Cl)c2-c2c(F)ccc(F)c2F)cc1` [compound 134], the “Test J disease control rating” value [1, 4] is reported as 100%, the “Test C disease control rating” value (Botrytis cinerea; [4]) is reported as 97% and the “Test F disease control rating” value (Septoria nodorum; [4]) is reported as 99%. The “Test D disease control rating” value (Alternaria solani; [4]) was 100%, the “Test G disease control rating” value (Septoria tritici; [4]) was 93% and the “Test I disease control rating” value [2, 4] was 99%.

`Fc1ccc(-n2c(Br)nc(Cl)c2-c2ccc(F)cc2Cl)cc1` [compound 182] was tested, and the “Test J disease control rating” value ([1]; 200 ppm, 0 = no control) was 99%, the “Test C disease control rating” value (Botrytis cinerea; 200 ppm, 0 = no control) was 99% and the “Test F disease control rating” value (Septoria nodorum; 200 ppm, 0 = no control) was 73%. The “Test D disease control rating” value (Alternaria solani; 200 ppm, 0 = no control) was 100%, the “Test G disease control rating” value (Septoria tritici; 200 ppm, 0 = no control) was 96% and the “Test I disease control rating” value ([2]; 200 ppm, 0 = no control) was 97%.

`Fc1cc(-n2c(Br)nc(Cl)c2-c2c(F)cccc2Cl)ccc1Cl` [compound 203] was tested, and the “Test J disease control rating” value ([1]; 200 ppm, 0 = no control) was 99%, the “Test C disease control rating” value (Botrytis cinerea; 200 ppm, 0 = no control) was 87% and the “Test F disease control rating” value (Septoria nodorum; 200 ppm, 0 = no control) was 87%. For the same compound, the “Test D disease control rating” value (Alternaria solani; 200 ppm, 0 = no control) was 98%, the “Test G disease control rating” value (Septoria tritici; 200 ppm, 0 = no control) was 97% and the “Test I disease control rating” value ([2]; 200 ppm, 0 = no control) was 100%.

`Fc1ccc(-n2c(Br)nc(Cl)c2-c2c(F)cccc2F)cc1F` [compound 169] was tested, and the “Test J disease control rating” value ([1]; 200 ppm, 0 = no control) was 99%, the “Test C disease control rating” value (Botrytis cinerea; 200 ppm, 0 = no control) was 99% and the “Test F disease control rating” value (Septoria nodorum; 200 ppm, 0 = no control) was 40%. The “Test D disease control rating” value (Alternaria solani; 200 ppm, 0 = no control) was 100%, the “Test G disease control rating” value (Septoria tritici; 200 ppm, 0 = no control) was 96% and the “Test I disease control rating” value ([2]; 200 ppm, 0 = no control) was 88%.

With `COc1ccc(F)c(-c2c(Cl)nc(Br)n2-c2cccc(F)c2)c1F` [compound 278] the “Test J disease control rating” value ([1]; 200 ppm, 0 = no control) was 100%, the “Test C disease control rating” value (Botrytis cinerea; 200 ppm, 0 = no control) was 99% and the “Test F disease control rating” value (Septoria nodorum; 200 ppm, 0 = no control) was 100%. For the same compound, the “Test D disease control rating” value (Alternaria solani; 200 ppm, 0 = no control) was 100%, the “Test G disease control rating” value (Septoria tritici; 200 ppm, 0 = no control) was 95% and the “Test I disease control rating” value ([2]; 200 ppm, 0 = no control) was 100%.
